The term TGI denotes the concentration at which net growth stops. A high value points to less potent growth arrest.

Holding throughout (assay): DTP human tumour cell line panel, 48 h
For test [1], the system named is MDA-MB-435.
Test [2] relates to PC-3 prostate.
Test [3] relates to UO-31 renal.
For test [4], the system named is RPMI-8226 leukemia.
In test [5] the test system is OVCAR-5 ovarian.
Test [6] deals with HCT-116 colon.
In test [7] the test system is NCI-H460 lung.
Test [8] concerns SN12C renal.
Test [9] deals with EKVX NSCLC.
The test system of test [10] is MCF7 breast.

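How tested: cells in 96-well plates exposed to compound for 48 hours at five concentrations. TGI: total growth inhibition.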

On to `Cc1cc2cc3c(cc2c(-c2ccc(N)cc2)n1)OCO3`, for which the TGI is above 100 µM in test [1]; above 100 µM in test [2]; above 100 µM in test [3]; 73.7 µM in test [4]; above 100 µM in [5]; above 100 µM in test [6]. The TGI in [7] was above 100 µM; in [8] it was above 100 µM; in test [9] it was above 100 µM; in [10] it was 53.6 µM.
`Cc1[nH]c(=O)[nH]c(=S)c1C(=O)Nc1cccc2cc3ccccc3cc12`: the TGI in [1], in test [2], in test [3], in test [4], in test [5] and in [6] was above 100 µM each time. Moreover, the TGI in test [7], in test [8], in test [9] and in test [10] was above 100 µM in each case.
With `NS(=O)(=O)c1ccc(NNc2c3ccccc3nc3c(C(=O)Nc4ccc(S(=O)(=O)Nc5ncccn5)cc4)cccc23)cc1`, the TGI in [1], in test [2], in test [3], in [4], in [5] and in test [6] was above 25 µM in each case. Further, the TGI in test [7], in test [8], in test [9] and in test [10] was above 25 µM in each case.
In the case of `COc1ccc(C(O)CC(O)(C(F)(F)F)C(F)(F)F)cc1` (stereo not given), the TGI is above 100 µM in test [1]; 55.7 µM in test [2]; above 100 µM in test [3]; 57.2 µM in test [4]; 83.9 µM in test [5]; 38.1 µM in test [6]. The TGI is 60.6 µM in [7], 60.8 µM in test [8], above 100 µM in test [9] and above 100 µM in test [10].
For `O=C(/C=C/c1cccs1)c1ccccc1Cl`, the TGI in test [1] came to 25.5 µM; in test [2] it was 34.5 µM; in [3] it was 17.2 µM; in [4] it was 61.9 µM; in test [5], 28.9 µM; in [6], 25.7 µM. Besides, the TGI in test [7] turned out to be 40.8 µM; in [8] it was 30.2 µM; in test [9] it was 30.8 µM; in test [10] it was 18.2 µM.
For `Cc1ccc(/C(O)=C/c2nc3ccc([N+](=O)[O-])cc3nc2/C=C(\O)c2ccc(C)cc2)cc1`, the TGI in test [1], in [2], in test [3], in test [4], in [5] and in test [6] was above 100 µM throughout. The TGI in test [7], in test [8], in test [9] and in test [10] was above 100 µM throughout.
`CCN(CC)c1nc(N(C)C)c2ccccc2n1`: the TGI in test [1] is above 100 µM; in [2], above 100 µM; in [3] it was 85.1 µM; in test [4] it was 40.6 µM; in test [5], above 100 µM; in test [6] it was above 100 µM. The TGI in test [7] was above 100 µM; in [8], above 100 µM; in test [9], 51.1 µM; in test [10], above 100 µM.
Regarding `CC(C)C(=O)Oc1cc2c(=O)oc3c(OC(=O)C(C)C)c(OC(=O)C(C)C)cc4c(=O)oc(c1OC(=O)C(C)C)c2c34`, the TGI in [1], in [2], in [3], in test [4], in test [5] and in test [6] was above 100 µM in each case. Besides, the TGI in test [7], in [8], in test [9] and in test [10] was above 100 µM in each case.
Regarding `Cn1c2ccccc2n2c3ncccc3c(=S)c(C#N)c12`, the TGI in test [1], in test [2], in test [3], in test [4], in test [5] and in test [6] was above 100 µM throughout. Moreover, the TGI in [7], in test [8], in test [9] and in [10] was above 100 µM in each case.
Turning to `CC(C)(C)OC(=O)n1cc(C2CN(O)C(=O)C23CCC(=O)N3Cc2ccccc2)c2ccccc21` (stereo not given), the TGI was above 100 µM in [1]; above 100 µM in [2]; above 100 µM in test [3]; 93.5 µM in test [4]; above 100 µM in test [5]; above 100 µM in [6]. The TGI in [7] is above 100 µM; in [8], 81.8 µM; in test [9], 47.7 µM; in test [10], above 100 µM.
Regarding `O=C1c2ccccc2-c2[nH]c3cn[nH]c(=O)c3c21`, the TGI in test [1], in [2], in [3], in [4], in test [5] and in [6] was above 100 µM each time. Also, the TGI in test [7], in test [8], in [9] and in test [10] was above 100 µM in each case.
Take `CCOC(=O)c1cnccc1CC1(C#N)c2ccccc2C=CN1C(=O)c1ccccc1` (stereo not given): the TGI in [1] is above 100 µM; in [2] it was above 100 µM; in [3], 91.1 µM; in test [4], 27.6 µM; in [5], above 100 µM; in test [6], above 100 µM. Moreover, the TGI is 89.5 µM in [7], 97.3 µM in test [8], above 100 µM in test [9] and above 100 µM in test [10].
Regarding `C=C1C(=O)O[C@H]2[C@H]3O[C@@H](C[C@@H]12)[C@](C)(O)CC[C@@H]1O[C@@]1(C)CCC[C@H]3C`, the TGI in test [1] was 42.2 µM; in test [2], above 100 µM; in test [3], 69.3 µM; in test [4], above 100 µM; in [5], above 100 µM; in test [6] it was 27.8 µM. Further, the total growth inhibition concentration (TGI) in test [7] was determined as 89 µM; in test [8], 65.2 µM; in test [9], 54.6 µM; in [10] it was 50.9 µM.
For `C(/Cc1ccc2c(c1)OCO2)=N\NC1=NCCCN1`, the TGI in test [1], in test [2], in test [3], in test [4], in test [5] and in test [6] was above 100 µM in each case. In addition, the TGI in test [7], in test [8], in test [9] and in test [10] was above 100 µM each time.
On to `NCCC1CN(C(=O)OCc2ccccc2)c2ccccc21` (stereo not given), for which the TGI in test [1] was 30 µM; in test [2], above 36.2 µM; in [3], 27.3 µM; in test [4], 46.6 µM; in test [5] it was 45.4 µM; in [6] it was 15.6 µM. Further, the TGI in [7] stood at 43.4 µM; in test [8], 27.3 µM; in test [9], 84.4 µM; in test [10] it was 22.9 µM.
Take `CC(=O)Nc1cc(Nc2cc(=O)[nH]c(=O)[nH]2)ccc1C`: the TGI in [1], in test [2], in test [3], in test [4], in [5] and in [6] was above 100 µM in each case. Also, the TGI in [7], in [8], in [9] and in [10] was above 100 µM throughout.
Consider `CO[C@H]1C[C@H](O[C@H]2CC[C@]3(C=O)[C@H]4CC[C@]5(C)[C@@H](C6=CC(=O)OC6)CC[C@]5(O)[C@@H]4CC[C@]3(O)C2)O[C@H](C)[C@H]1O`, for which the TGI in [1] worked out at 1.47 µM; in [2], 1.04 µM; in [3], 2.53 µM; in [4], 6.6 µM; in [5] it was 1.35 µM; in test [6], 0.737 µM. Also, the TGI was 0.176 µM in [7], 0.201 µM in test [8], 0.79 µM in [9] and 13.1 µM in [10].
Consider `CN(C)C(=S)Oc1ccc2ccc(=O)oc2c1`, for which the TGI in [1], in test [2], in [3], in test [4], in [5] and in test [6] was above 100 µM each time. The TGI in test [7], in [8], in [9] and in test [10] was above 100 µM throughout.
Take `CCOC(=O)C1(C(F)(F)F)N=C(CC)OC(N2CCOCC2)=N1` (stereo not given): the TGI in test [1], in test [2], in test [3], in test [4], in test [5] and in [6] was above 100 µM each time. The TGI in test [7], in [8], in test [9] and in test [10] was above 100 µM each time.
Regarding `NC1=NCC(CN2CCCC2)O1` (stereo not given), the TGI in [1], in [2], in test [3], in test [4], in test [5] and in test [6] was above 100 µM each time. The concentration for total growth inhibition (TGI) in [7], in [8], in [9] and in test [10] was above 100 µM throughout.
As to `CC(C)OC1OC(CO)C(O)CC1n1cc(F)c(=O)[nH]c1=O` (stereo not given), the TGI in test [1], in test [2], in test [3], in test [4], in [5] and in test [6] was above 100 µM throughout. Further, the TGI in test [7], in test [8], in test [9] and in test [10] was above 100 µM in each case.
Consider `CCOC(=O)C(=O)C(=O)NN(C)C1=NCCN1`, for which the TGI in test [1], in test [2], in test [3], in test [4], in test [5] and in test [6] was above 100 µM throughout. For the same compound, the TGI in [7], in test [8], in test [9] and in [10] was above 100 µM in each case.
For `O=C1CC(n2cccc2)c2c(Br)sc(Br)c21` (stereo not given), the TGI amounted to 29.3 µM in [1]; 33.9 µM in test [2]; 5.66 µM in test [3]; 27.4 µM in [4]; 32.5 µM in test [5]; 28.7 µM in test [6]. Besides, the TGI came to 36.6 µM in test [7], 31.1 µM in [8], 33.3 µM in [9] and 26.9 µM in [10].
For the compound `Nc1nc(Cl)cc(NCC2(O)CCCC2)n1`, the TGI in test [1], in [2], in test [3], in [4], in [5] and in test [6] was above 100 µM throughout. Further, the total growth inhibition concentration (TGI) in test [7], in test [8], in test [9] and in test [10] was above 100 µM throughout.
For `c1ccc(-c2nnn(CCN3CCCCC3)n2)cc1`, the TGI in [1], in test [2], in test [3], in test [4], in [5] and in test [6] was above 100 µM each time. Further, the TGI in test [7], in [8], in [9] and in test [10] was above 100 µM in each case.
In the case of `COC(=O)c1c(C)nc(C)c(NO)c1-c1ccccc1C(F)(F)F`, the TGI in test [1] was 37.6 µM; in test [2], above 100 µM; in test [3], 74.2 µM; in test [4], 70.6 µM; in test [5], above 100 µM; in test [6], 29.9 µM. Moreover, the TGI in test [7] was above 100 µM; in test [8] it was 62.4 µM; in [9] it was above 100 µM; in test [10], 39.2 µM.
On to `CCOC(=O)C1CCCCN1CCc1c[nH]c2ccccc12` (stereo not given), for which the TGI in [1], in test [2], in test [3], in [4], in test [5] and in test [6] was above 100 µM each time. Further, the TGI in [7], in test [8], in test [9] and in [10] was above 100 µM throughout.

The record behind these values is PubChem BioAssay (NCI).
